Assay [1] deals with Gamma-secretase. The experiment in a line: Inhibition of gamma-secretase (unknown origin) expressed in N2a NL/N cells coexpressing betaAPPNL and NotchdeltaE assessed as Abeta40 secretion by ELISA. Type of assay: cell-based, Homo sapiens. On the technique in general: ELISA stands for enzyme-linked immunosorbent assay.
Assay [2] addresses Gamma-secretase. Description: Inhibition of gamma-secretase (unknown origin) expressed in N2a NL/N cells coexpressing betaAPPNL and NotchdeltaE assessed as Abeta42 secretion by ELISA. Type of assay: cell-based, Homo sapiens.
The target in assay [3] is T1, Gamma-secretase (Homo sapiens) (UniProt Q96BI3+Q9NZ42+Q8WW43+P49768+Q92542+P49810). The experiment in a line: Inhibition of gamma-secretase (unknown origin) expressed in N2a NL/N cells coexpressing betaAPPNL and NotchdeltaE assessed as Abeta40 secretion at 100 nM by ELISA. It is filed as cell-based.
Assay [4] deals with T1, Gamma-secretase (Homo sapiens). The experiment in a line: Inhibition of gamma-secretase (unknown origin) expressed in N2a NL/N cells coexpressing betaAPPNL and NotchdeltaE assessed as Abeta42 secretion at 100 nM by ELISA. It is filed as cell-based.
Assay [5] deals with Gamma-secretase. The experiment in a line: Inhibition of gamma-secretase in human HEK293 cells expressing APPNL/NotchDeltaE/EGFP/UAS-firefly luciferase assessed as inhibition of notch intracellular cytoplasmic domain secretion by ELISA. Type of assay: cell-based.
The target of assay [6] is T1, Gamma-secretase (Homo sapiens). The experiment in a line: Displacement of biotinylated PS1NTF from gamma-secretase (unknown origin). It is filed as protein-complex assay.
Assay [7] deals with Gamma-secretase. The experiment in a line: Inhibition of gamma-secretase in human HEK293 cells expressing APPNL/NotchDeltaE/EGFP/UAS-firefly luciferase assessed as inhibition of IAbeta40 secretion by ELISA. It is filed as cell-based.
Assay [8] deals with T1, Gamma-secretase (Homo sapiens). Description: Inhibition of gamma-secretase in human H4 glioma cells assessed as Abeta production at 0.1 to 10 µM by immunoblot analysis. Type of assay: cell-based. (In general: Immunoblotting shows a protein as a band on a membrane.)
Assay [9] has as its target Gamma-secretase. Description: Inhibition of gamma-secretase in human HEK293 cells expressing APPNL/NotchDeltaE/EGFP/UAS-firefly luciferase assessed as inhibition of Abeta42 secretion by ELISA. Type of assay: cell-based.
Assay [10] addresses T1, Gamma-secretase (Homo sapiens). The experiment in a line: Ratio of IC50 for gamma-secretase-mediated inhibition of notch intracellular cytoplasmic domain secretion to IC50 for gamma-secretase-mediated inhibition of Abeta42 secretion in human HEK293 cells expressing APPNL/NotchDeltaE/EGFP/UAS-firefly luciferase by ELISA. Type of assay: cell-based.

Activity calls are given as the source filed them. No cut-off for these calls is given here. Some results are limits rather than exact numbers.

Turning to `CC(=O)N[C@H]1CCC[C@@H]1C(=O)N[C@H]1CCC[C@@H]1C(=O)N[C@H]1CCC[C@@H]1C(=O)N[C@H]1CCC[C@@H]1C(=O)N[C@H]1CCC[C@@H]1C(=O)N[C@H]1CCC[C@@H]1C(=O)N[C@H]1CCC[C@@H]1C(=O)N[C@H]1CCC[C@@H]1C(=O)N[C@H]1CCC[C@@H]1C(=O)N[C@H]1CCC[C@@H]1C(=O)N[C@H]1CCC[C@@H]1C(N)=O`, the IC50 worked out at 244 nM on Gamma-secretase [1] and 225 nM at Gamma-secretase [2].
The matching figures for `CC(=O)N1CCC[C@H]1C(=O)N1CCC[C@H]1C(=O)N1CCC[C@H]1C(=O)N1CCC[C@H]1C(=O)N1CCC[C@H]1C(=O)N1CCC[C@H]1C(=O)N1CCC[C@H]1C(=O)N1CCC[C@H]1C(=O)N1CCC[C@H]1C(N)=O`: greater than 30000 nM and greater than 30000 nM.
Regarding `CC(=O)N[C@H]1CCC[C@@H]1C(=O)N[C@H]1CCC[C@@H]1C(=O)N[C@H]1CCC[C@@H]1C(=O)N[C@H]1CCC[C@@H]1C(=O)N[C@H]1CCC[C@@H]1C(=O)N[C@H]1CCC[C@@H]1C(=O)N[C@H]1CCC[C@@H]1C(=O)N[C@H]1CCC[C@@H]1C(=O)N[C@H]1CCC[C@@H]1C(=O)N[C@H]1CCC[C@@H]1C(N)=O`, the IC50 worked out at 2280 nM on Gamma-secretase [1] and 5210 nM on Gamma-secretase [2].
In the same order, the values of `CC(=O)N1CCC[C@@H]1C(=O)N1CCC[C@@H]1C(=O)N1CCC[C@@H]1C(=O)N1CCC[C@@H]1C(=O)N1CCC[C@@H]1C(=O)N1CCC[C@@H]1C(N)=O` are greater than 30000 nM and greater than 30000 nM.
In the same order, the values of `CC(=O)N1CCC[C@H]1C(=O)N1CCC[C@H]1C(=O)N1CCC[C@H]1C(=O)N1CCC[C@H]1C(=O)N1CCC[C@H]1C(=O)N1CCC[C@H]1C(N)=O` are greater than 30000 nM and greater than 30000 nM.
In the same order, the values of `CC(=O)N1CCC[C@@H]1C(=O)N1CCC[C@@H]1C(=O)N1CCC[C@@H]1C(=O)N1CCC[C@@H]1C(=O)N1CCC[C@@H]1C(=O)N1CCC[C@@H]1C(=O)N1CCC[C@@H]1C(=O)N1CCC[C@@H]1C(=O)N1CCC[C@@H]1C(N)=O` are greater than 30000 nM and greater than 30000 nM.
For `CC(=O)N1CCC[C@@H]1C(=O)N1CCC[C@@H]1C(=O)N1CCC[C@@H]1C(=O)N1CCC[C@@H]1C(=O)N1CCC[C@@H]1C(=O)N1CCC[C@@H]1C(=O)N1CCC[C@@H]1C(=O)N1CCC[C@@H]1C(=O)N1CCC[C@@H]1C(=O)N1CCC[C@@H]1C(=O)N1CCC[C@@H]1C(N)=O`, the IC50 at Gamma-secretase [1] and at Gamma-secretase [2] was greater than 30000 nM each time.
Consider `CC(=O)N[C@H]1CCC[C@@H]1C(=O)N[C@H]1CCC[C@@H]1C(=O)NCCC(=O)N[C@H]1CCC[C@@H]1C(=O)N[C@H]1CCC[C@@H]1C(=O)N[C@H]1CCC[C@@H]1C(=O)N[C@H]1CCC[C@@H]1C(=O)N[C@H]1CCC[C@@H]1C(=O)N[C@H]1CCC[C@@H]1C(=O)N[C@H]1CCC[C@@H]1C(=O)N[C@H]1CCC[C@@H]1C(=O)N[C@H]1CCC[C@@H]1C(N)=O`, for which the figures for the IC50 on Gamma-secretase [1] and on Gamma-secretase [2] were 2.47 nM and 7.47 nM, respectively. In addition, the inhibition result in [3] and in [4] was “Active” each time.
For the molecule `CC(=O)N[C@H]1CCC[C@@H]1C(=O)N[C@H]1CCC[C@@H]1C(=O)N[C@@H](CC(N)=O)CC(=O)N[C@H]1CCC[C@@H]1C(=O)N[C@H]1CCC[C@@H]1C(=O)N[C@H]1CCC[C@@H]1C(=O)N[C@H]1CCC[C@@H]1C(=O)N[C@H]1CCC[C@@H]1C(=O)N[C@H]1CCC[C@@H]1C(=O)N[C@H]1CCC[C@@H]1C(=O)N[C@H]1CCC[C@@H]1C(=O)N[C@H]1CCC[C@@H]1C(N)=O`, the IC50 is 3.16 nM at Gamma-secretase [5]; 0.555 nM on Gamma-secretase [1]; 0.88 nM on Gamma-secretase [2]; 84.6 nM on Gamma-secretase [7]; 68.4 nM at Gamma-secretase [9]. Also, the outcome in assay [6] was Active. Besides, the inhibition result in [3], in assay [8] and in [4] was “Active” in each case. For the same molecule, the Ratio IC50 in assay [10] was 0.0462.
For `CC(=O)N[C@H]1CCC[C@@H]1C(=O)N[C@H]1CCC[C@@H]1C(=O)N[C@H]1CCC[C@@H]1C(=O)N[C@H]1CCC[C@@H]1C(=O)N[C@H]1CCC[C@@H]1C(=O)N[C@H]1CCC[C@@H]1C(=O)N[C@H]1CCC[C@@H]1C(=O)N[C@H]1CCC[C@@H]1C(=O)N[C@H]1CCC[C@@H]1C(=O)N[C@H]1CCC[C@@H]1C(=O)N[C@H]1CCC[C@@H]1C(=O)N[C@H]1CCC[C@@H]1C(N)=O`, the half-inhibitory concentration (IC50) was found to be 20.4 nM at Gamma-secretase [5]; 8.81 nM on Gamma-secretase [1]; 9.93 nM on Gamma-secretase [2]; 1180 nM at Gamma-secretase [7]; 626 nM on Gamma-secretase [9]. In addition, the Ratio IC50 in assay [10] turned out to be 0.0326.
As to `CC(=O)N[C@H]1CCC[C@@H]1C(=O)N[C@H]1CCC[C@@H]1C(=O)N[C@H]1CCC[C@@H]1C(=O)N[C@H]1CCC[C@@H]1C(=O)N[C@H]1CCC[C@@H]1C(=O)N[C@@H](CC(=O)N[C@H]1CCC[C@@H]1C(=O)N[C@H]1CCC[C@@H]1C(=O)N[C@H]1CCC[C@@H]1C(=O)N[C@H]1CCC[C@@H]1C(=O)N[C@H]1CCC[C@@H]1C(=O)N[C@H]1CCC[C@@H]1C(N)=O)[C@@H](C)O`, the inhibition entry in assay [3] and in assay [4] was “inactive” throughout.
In the case of `CC(=O)N[C@H]1CCC[C@@H]1C(=O)N[C@H]1CCC[C@@H]1C(=O)N[C@H]1CCC[C@@H]1C(=O)N[C@H]1CCC[C@@H]1C(=O)N[C@H]1CCC[C@@H]1C(=O)N[C@H]1CCC[C@@H]1C(=O)N[C@H]1CCC[C@@H]1C(=O)N[C@H]1CCC[C@@H]1C(=O)N[C@H](CC(=O)N[C@H]1CCC[C@@H]1C(=O)N[C@H]1CCC[C@@H]1C(=O)N[C@H]1CCC[C@@H]1C(N)=O)CC(C)C`, the inhibition result in assay [3] and in assay [4] was “inactive” each time.
Take `CC(=O)N[C@H]1CCC[C@@H]1C(=O)N[C@H]1CCC[C@@H]1C(=O)N[C@@H](C)CC(=O)N[C@H]1CCC[C@@H]1C(=O)N[C@H]1CCC[C@@H]1C(=O)N[C@H]1CCC[C@@H]1C(=O)N[C@H]1CCC[C@@H]1C(=O)N[C@H]1CCC[C@@H]1C(=O)N[C@H]1CCC[C@@H]1C(=O)N[C@H]1CCC[C@@H]1C(=O)N[C@H]1CCC[C@@H]1C(=O)N[C@H]1CCC[C@@H]1C(N)=O`: the inhibition entry in assay [3] and in assay [4] was “Active” throughout.
`CC(=O)N[C@H]1CCC[C@@H]1C(=O)N[C@H]1CCC[C@@H]1C(=O)NC(CO)CC(=O)N[C@H]1CCC[C@@H]1C(=O)N[C@H]1CCC[C@@H]1C(=O)N[C@H]1CCC[C@@H]1C(=O)N[C@H]1CCC[C@@H]1C(=O)N[C@H]1CCC[C@@H]1C(=O)N[C@H]1CCC[C@@H]1C(=O)N[C@H]1CCC[C@@H]1C(=O)N[C@H]1CCC[C@@H]1C(=O)N[C@H]1CCC[C@@H]1C(N)=O` (single isomer, unassigned): the IC50 at Gamma-secretase [5] was found to be 41.3 nM; at Gamma-secretase [1] it was 0.402 nM; on Gamma-secretase [2], 0.83 nM; at Gamma-secretase [7] it was 84.2 nM; at Gamma-secretase [9], 86.4 nM. Moreover, the result in assay [6] was Active. For the same molecule, the inhibition result in assay [3], in assay [8] and in assay [4] was “Active” throughout. The Ratio IC50 in assay [10] is 0.478.
With `O=S(=O)(N[C@H](CO)C(C(F)(F)F)C(F)(F)F)c1ccc(Cl)s1` [BEGACESTAT], the IC50 on Gamma-secretase [1] was determined as 203 nM; on Gamma-secretase [2], 414 nM.
The matching figures for `CC(=O)N1CCC[C@H]1C(=O)N1CCC[C@H]1C(=O)N1CCC[C@H]1C(=O)N1CCC[C@H]1C(=O)N1CCC[C@H]1C(=O)N1CCC[C@H]1C(=O)N1CCC[C@H]1C(=O)N1CCC[C@H]1C(=O)N1CCC[C@H]1C(=O)N1CCC[C@H]1C(=O)N1CCC[C@H]1C(N)=O`: greater than 30000 nM and greater than 30000 nM.
Consider `CC(=O)N[C@H]1CCC[C@@H]1C(=O)N[C@H]1CCC[C@@H]1C(=O)N[C@H]1CCC[C@@H]1C(=O)N[C@H]1CCC[C@@H]1C(=O)N[C@H]1CCC[C@@H]1C(=O)N[C@H]1CCC[C@@H]1C(=O)N[C@H]1CCC[C@@H]1C(=O)N[C@H]1CCC[C@@H]1C(=O)N[C@@H](CCC(N)=O)CC(=O)N[C@H]1CCC[C@@H]1C(=O)N[C@H]1CCC[C@@H]1C(=O)N[C@H]1CCC[C@@H]1C(N)=O`, for which the inhibition entry in assay [3] and in assay [4] was “inactive” in each case.
Take `CC(=O)N[C@H]1CCC[C@@H]1C(=O)N[C@H]1CCC[C@@H]1C(=O)N[C@H]1CCC[C@@H]1C(=O)N[C@H]1CCC[C@@H]1C(=O)N[C@H]1CCC[C@@H]1C(=O)N[C@@H](CCC(N)=O)CC(=O)N[C@H]1CCC[C@@H]1C(=O)N[C@H]1CCC[C@@H]1C(=O)N[C@H]1CCC[C@@H]1C(=O)N[C@H]1CCC[C@@H]1C(=O)N[C@H]1CCC[C@@H]1C(=O)N[C@H]1CCC[C@@H]1C(N)=O`: the inhibition result in assay [3] and in assay [4] was “inactive” in each case.

In general, IC50 refers to the concentration that gives 50% inhibition.

Values taken from ChEMBL document CHEMBL2331477, “Effect of helical conformation and side chain structure on γ-secretase inhibition by β-peptide foldamers: insight into substrate recognition” (J Med Chem, 2013).
